# Laboratory results as given in patent US9585877B2, “Methods of maintaining, treating or improving cognitive function” (Forum Pharmaceuticals, Inc., priority 2012, dated 2017).
# Columns and labels:
# Assay type in all cases: in vivo, human
# [1] = test system: subjects with mild-to-moderate Alzheimer's disease; experiment: Clinical study, Clinical Dementia Rating-Sum of Boxes (CDR-SB)
# Procedure: (§1) A double-blind study of 3 doses of the Test Composition or placebo in subjects with mild-to-moderate Alzheimer's disease, with or without receiving a concomitant AChEI for 24 weeks (168 days) after a 7 day placebo run-in period.
# (§2) Total number of subjects in the safety population was 409 subjects that were dosed once-daily with a dosing-capsule for a period of 168 days. The subjects dosed, and the particular dosing, included: 104 subjects dosed with Placebo capsule; and 305 subjects dosed with Test Compound (104 subjects with 0.3 mg capsules; 101 subjects with 1 mg capsules; and 100 subjects with 2 mg capsules).
# (§3) The population included generally healthy male or female subjects, aged 50 to ≦85 years, with mild-to-moderate Alzheimer's disease, consistent with criteria defined by a Work Group of the National Institute of Neurological and Communicative Disorders and Stroke—Alzheimer's Disease and Related Disorders Association, of mild to moderate severity, with a Mini-Mental State Examination score (MMSE) 14 and ≦24, and a Clinical Dementia Rating Scale Sum of the Boxes (CDR-SB) score of 2. […] Subjects were required to be either receiving a stable dose of an AChEI (donepezil or rivastigmine) for at least 3 months before screening or not presently being treated with an AChEI or mementine for at least 30 days.
# (§4) Subjects with mild to moderate Alzheimer's disease receiving stable treatment with an AChEI (donepezil or rivastigmine: ‘add-on’ subjects) or not receiving an AChEI (de novo subjects′) received 0.3, 1, or 2 mg doses of Test Composition or placebo for up to 24 weeks (168 days) of double-blind treatment, after a 7-day single-blind, placebo run-in period to assess study drug compliance. A follow-up telephone contact was conducted approximately 15 days after the last dose of study drug for questions regarding safety.
# Clinical Dementia Rating-Sum of Boxes CDR-SB
# The CDR-SB test employed herein is based on the procedure developed by Hughs C D, Berg L, Danziger W L, Coben L A, and Martin R L. “A new clinical scale for the staging of dementia”; Br J Psychiatry. 1982; 140:566-572, and provides an assessment of six (6) dimensions: Memory, Orientation, Judgment and Problem Solving, Community Affairs, Home and Hobbies, and Personal Care.
# Each of the six CDR dimensions are scored separately with well-defined anchors from 0 to 3.0 (no impairment to severe illness). The total sum of boxes ranges from 0 to 18. Higher totals indicate more severe impairment. A decrease from baseline indicates improvement.
# [2] = test system: subjects with mild-to-moderate Alzheimer's disease; experiment: Clinical study, ADCS-ADL
# Procedure: as §1, §2, §3, §4
# Alzheimer's Disease Cooperative Study Group-Activities of Daily Living Scale (ADCS-ADL, or sometimes referred to as ADCS-ADL-23):
# The ADCS-ADL-23 test employed herein is based on the procedure developed by Galasko D, Bennett D, Sano M, et al., Alz Dis Assoc Disord (1997) 11(2): S33-S39.
# The ADCS-ADL test assesses the actual performance of specific actions and behaviors by a patient as observed by a caregiver/informant.
# [3] = test system: subjects with mild-to-moderate Alzheimer's disease; experiment: Clinical study, Executive Function composite score; conditions: for Executive function composite score Effect Size: over a 23 week period
# Procedure: as §1, §4
# These analyses were prespecified in the analytical plan (ITT population), and included the following: Cognition composite score (ADAS-cog Word Recall, Word Recognition, & Orientation, and COWAT and CFT), Memory composite score (ADAS-cog Word Recall, Word Recognition, and Orientation), and Executive Function composite score (COWAT and CFT).
# Composite Scores—Three composite scores were calculated: (1) Composite Cognition Score (ADAS-cog Word Recall, Word Recognition, and Orientation, COWAT and CFT); (2) Memory Composite Score (ADAS-cog Word Recall, Word Recognition, and Orientation); and (3) Executive Function Composite Score (COWAT and CFT).
# The composite score is only computed when all test scores are available.
# [4] = test system: subjects with mild-to-moderate Alzheimer's disease; experiment: Responder analysis: PK/PD effects (ADAS-Cog)
# Description: The response by plasma level of Test Compound was also investigated. A ‘responder’ definition of >3 pt ADAS-Cog effect was utilized. The plasma levels of responders and nonresponders informed a logistic regression model. […] FIG. 12 illustrates the mean plasma concentration levels (including the 95% confidence levels and the measured extremes) of Test Compound, and FIG. 13 illustrates the Exposure Response analysis, using plasma concentration levels of Test Compound and ADAS-Cog-13 changes. The relationship between dose and likelihood of clinical response, as defined by either an ADAS-Cog effect ≧3 points, or ≧2 points, is summarized in Table 19: […]
structure (smiles),measurement,setting,value
"Cl.O.O=C(N[C@H]1CN2CCC1CC2)c1cc2cccc(Cl)c2s1 [Test Compound, (R)-7-chloro-N-(quinuclidin-3-yl)benzo[b]thiophene-2-carboxamide, hydrochloride, monohydrate]",CDR-SB (Baseline was assigned the value of zero @ Week 0),"[1]; 0.3 mg daily dose, Week 4",0.0026
same,CDR-SB (Baseline was assigned the value of zero @ Week 0),"[1]; 0.3 mg daily dose, Week 12",0.0542
same,CDR-SB (Baseline was assigned the value of zero @ Week 0),"[1]; 0.3 mg daily dose, Week 18",0.2325
same,CDR-SB (Baseline was assigned the value of zero @ Week 0),"[1]; 0.3 mg daily dose, Week 23",0.4427
same,CDR-SB (Baseline was assigned the value of zero @ Week 0),"[1]; 1 mg daily dose, Week 4",−0.2365
same,CDR-SB (Baseline was assigned the value of zero @ Week 0),"[1]; 1 mg daily dose, Week 12",−0.0811
same,CDR-SB (Baseline was assigned the value of zero @ Week 0),"[1]; 1 mg daily dose, Week 18",−0.0424
same,CDR-SB (Baseline was assigned the value of zero @ Week 0),"[1]; 1 mg daily dose, Week 23",0.1214
same,CDR-SB (Baseline was assigned the value of zero @ Week 0),"[1]; 2 mg daily dose, Week 4",−0.1361
same,CDR-SB (Baseline was assigned the value of zero @ Week 0),"[1]; 2 mg daily dose, Week 12",−0.1352
same,CDR-SB (Baseline was assigned the value of zero @ Week 0),"[1]; 2 mg daily dose, Week 18",−0.1368
same,CDR-SB (Baseline was assigned the value of zero @ Week 0),"[1]; 2 mg daily dose, Week 23",−0.088
same,CDR-SB Effect Size,[1]; 2 mg dose versus Placebo,0.31
same,CDR-SB (Baseline was assigned the value of zero @ Week 0),"[1]; Add-On patients (stable donepezil or rivastigmine), 0.3 mg daily dose, Week 4",−0.2148
same,CDR-SB (Baseline was assigned the value of zero @ Week 0),"[1]; Add-On patients (stable donepezil or rivastigmine), 0.3 mg daily dose, Week 12",−0.1333
same,CDR-SB (Baseline was assigned the value of zero @ Week 0),"[1]; Add-On patients (stable donepezil or rivastigmine), 0.3 mg daily dose, Week 18",0.0576
same,CDR-SB (Baseline was assigned the value of zero @ Week 0),"[1]; Add-On patients (stable donepezil or rivastigmine), 0.3 mg daily dose, Week 23",0.4174
same,CDR-SB (Baseline was assigned the value of zero @ Week 0),"[1]; Add-On patients (stable donepezil or rivastigmine), 1 mg daily dose, Week 4",−0.2473
same,CDR-SB (Baseline was assigned the value of zero @ Week 0),"[1]; Add-On patients (stable donepezil or rivastigmine), 1 mg daily dose, Week 12",0.1511
same,CDR-SB (Baseline was assigned the value of zero @ Week 0),"[1]; Add-On patients (stable donepezil or rivastigmine), 1 mg daily dose, Week 18",0.2268
same,CDR-SB (Baseline was assigned the value of zero @ Week 0),"[1]; Add-On patients (stable donepezil or rivastigmine), 1 mg daily dose, Week 23",0.476
same,CDR-SB (Baseline was assigned the value of zero @ Week 0),"[1]; Add-On patients (stable donepezil or rivastigmine), 2 mg daily dose, Week 4",−0.236
same,CDR-SB (Baseline was assigned the value of zero @ Week 0),"[1]; Add-On patients (stable donepezil or rivastigmine), 2 mg daily dose, Week 12",−0.2247
same,CDR-SB (Baseline was assigned the value of zero @ Week 0),"[1]; Add-On patients (stable donepezil or rivastigmine), 2 mg daily dose, Week 18",−0.1084
same,CDR-SB (Baseline was assigned the value of zero @ Week 0),"[1]; Add-On patients (stable donepezil or rivastigmine), 2 mg daily dose, Week 23",−0.1633
same,CDR-SB (Baseline was assigned the value of zero @ Week 0),"[1]; de novo patients, 0.3 mg daily dose, Week 4",0.0816
same,CDR-SB (Baseline was assigned the value of zero @ Week 0),"[1]; de novo patients, 0.3 mg daily dose, Week 12",0.1082
same,CDR-SB (Baseline was assigned the value of zero @ Week 0),"[1]; de novo patients, 0.3 mg daily dose, Week 18",0.27
same,CDR-SB (Baseline was assigned the value of zero @ Week 0),"[1]; de novo patients, 0.3 mg daily dose, Week 23",0.3392
same,CDR-SB (Baseline was assigned the value of zero @ Week 0),"[1]; de novo patients, 1 mg daily dose, Week 4",−0.3161
same,CDR-SB (Baseline was assigned the value of zero @ Week 0),"[1]; de novo patients, 1 mg daily dose, Week 12",−0.3858
same,CDR-SB (Baseline was assigned the value of zero @ Week 0),"[1]; de novo patients, 1 mg daily dose, Week 18",−0.3763
same,CDR-SB (Baseline was assigned the value of zero @ Week 0),"[1]; de novo patients, 1 mg daily dose, Week 23",−0.288
same,CDR-SB (Baseline was assigned the value of zero @ Week 0),"[1]; de novo patients, 2 mg daily dose, Week 4",−0.133
same,CDR-SB (Baseline was assigned the value of zero @ Week 0),"[1]; de novo patients, 2 mg daily dose, Week 12",−0.1475
same,CDR-SB (Baseline was assigned the value of zero @ Week 0),"[1]; de novo patients, 2 mg daily dose, Week 18",−0.2625
same,CDR-SB (Baseline was assigned the value of zero @ Week 0),"[1]; de novo patients, 2 mg daily dose, Week 23",−0.1239
same,ADCS-ADL (Baseline was assigned the value of zero @ Week 0),"[2]; 0.3 mg daily dose, Week 4",0.07926
same,ADCS-ADL (Baseline was assigned the value of zero @ Week 0),"[2]; 0.3 mg daily dose, Week 12",−0.5757
same,ADCS-ADL (Baseline was assigned the value of zero @ Week 0),"[2]; 0.3 mg daily dose, Week 18",−0.6255
same,ADCS-ADL (Baseline was assigned the value of zero @ Week 0),"[2]; 0.3 mg daily dose, Week 23",−1.8992
same,ADCS-ADL (Baseline was assigned the value of zero @ Week 0),"[2]; 1 mg daily dose, Week 4",0.509
same,ADCS-ADL (Baseline was assigned the value of zero @ Week 0),"[2]; 1 mg daily dose, Week 12",0.9138
same,ADCS-ADL (Baseline was assigned the value of zero @ Week 0),"[2]; 1 mg daily dose, Week 18",0.8306
same,ADCS-ADL (Baseline was assigned the value of zero @ Week 0),"[2]; 1 mg daily dose, Week 23",−0.3467
same,ADCS-ADL (Baseline was assigned the value of zero @ Week 0),"[2]; 2 mg daily dose, Week 4",0.908
same,ADCS-ADL (Baseline was assigned the value of zero @ Week 0),"[2]; 2 mg daily dose, Week 12",0.8426
same,ADCS-ADL (Baseline was assigned the value of zero @ Week 0),"[2]; 2 mg daily dose, Week 18",0.8097
same,ADCS-ADL (Baseline was assigned the value of zero @ Week 0),"[2]; 2 mg daily dose, Week 23",0.3166
same,ADCS-ADL Effect Size,[2]; 2 mg dose versus Placebo,0.20
same,Executive Function Composite Score (Baseline was assigned the value of zero @ Week 0),"[3]; 0.3 mg daily dose, Week 4",0.0074
same,Executive Function Composite Score (Baseline was assigned the value of zero @ Week 0),"[3]; 0.3 mg daily dose, Week 12",0.0391
same,Executive Function Composite Score (Baseline was assigned the value of zero @ Week 0),"[3]; 0.3 mg daily dose, Week 18",−0.0224
same,Executive Function Composite Score (Baseline was assigned the value of zero @ Week 0),"[3]; 0.3 mg daily dose, Week 23",−0.0153
same,Executive Function Composite Score (Baseline was assigned the value of zero @ Week 0),"[3]; 1 mg daily dose, Week 4",0.0202
same,Executive Function Composite Score (Baseline was assigned the value of zero @ Week 0),"[3]; 1 mg daily dose, Week 12",0.0609
same,Executive Function Composite Score (Baseline was assigned the value of zero @ Week 0),"[3]; 1 mg daily dose, Week 18",0.0418
same,Executive Function Composite Score (Baseline was assigned the value of zero @ Week 0),"[3]; 1 mg daily dose, Week 23",0.0476
same,Executive function composite score Effect Size,[3]; 1 mg versus placebo,0.32
same,Executive Function Composite Score (Baseline was assigned the value of zero @ Week 0),"[3]; 2 mg daily dose, Week 4",−0.0311
same,Executive Function Composite Score (Baseline was assigned the value of zero @ Week 0),"[3]; 2 mg daily dose, Week 12",−0.0452
same,Executive Function Composite Score (Baseline was assigned the value of zero @ Week 0),"[3]; 2 mg daily dose, Week 18",0.0188
same,Executive Function Composite Score (Baseline was assigned the value of zero @ Week 0),"[3]; 2 mg daily dose, Week 23",0.0244
same,Executive function composite score Effect Size,[3]; 2 mg versus placebo,0.27
same,"Responders, ADAS-Cog (≧2 points)",[4]; 0.3 mg,31%
same,"Responders, ADAS-Cog (≧3 points)",[4]; 0.3 mg,25%
same,"Responders, ADAS-Cog (≧2 points)",[4]; 1 mg,33%
same,"Responders, ADAS-Cog (≧3 points)",[4]; 1 mg,28%
same,"Responders, ADAS-Cog (≧2 points)",[4]; 2 mg,51%
same,"Responders, ADAS-Cog (≧3 points)",[4]; 2 mg,45%
same,Relationship of plasma level and likelihood of being a responder,"[4]; responder >3 pt ADAS-Cog effect, logistic regression model, p=0.003",significant plasma level/exposure response relationship exists
